Laboratory results as given in US20240417408A1, “SMALL MOLECULE INHIBITORS OF KRAS G12C MUTANT” (MERCK SHARP & DOHME CORP., priority 2021, published 2024).

Key:
[1] = target: T1, Biotinylated KRAS G12C protein and GST-tagged Ras binding domain of c-RAF (Homo sapiens, UniProt P01116, C118S/C51S/C80L/G12C); assay: Test Example 5: RAS:RAF-RBD binding assay (TR-FRET); details: 30-minute incubation with compound, then GST-c-RAF RBD, read-out: cRaf IC50
T1 construct: biotin acceptor peptide (Avi-type, […]
Procedure: Test Example 5: Procedure for RAS:RAF-RBD Binding Assay
The RAF-Ras binding domain (RBD) protein interaction assay utilizes Biotinylated KRAS G12C protein (SEQ ID NO: 3) and the GST-tagged Ras binding domain of c-RAF (residues 50-132) from Jena Biosciences). Compounds are added to KRAS and then after a 30-minute incubation time the RAF-RBD and detection antibodies are added. Small molecule inhibitors that block the interaction of c-RAF-RBD prevent generation of a TR-FRET signal.
Biotinylated KRAS G12C protein is diluted to 20 nM in assay buffer (20 mM HEPES pH 7.5, 150 mM sodium chloride, 10 mM magnesium chloride, and 0.01% Tween20).
(§1) Each test compound (10 mM stock in DMSO) is diluted in DMSO to make a 10-point, 3-fold dilution series in a 384-well low dead volume microplate (Labcyte, catalog #LP-0200). Once titrations are made, 50 nL of the diluted compounds is acoustically dispensed into 384-well plates (Corning, catalog #3820) using an Echo 655 (Labcyte).
Each well of the assay plate receives 5 μL of Biotinylated KRAS G12C assay solution and is incubated at room temperature for 30 minutes. Each well then receives 5 μL of 100 nM GST-c-RAF RBD protein and a 1:100 dilution of both anti-GST-d2 (Cisbio catalog #61GSTDLA) and Strepavidin-Tb cryptate (Cisbio catalog #610SATLA) in assay buffer and the plate is mixed and briefly centrifuged followed by a 60 minute incubation at room temperature.
(§2) The time-resolved fluorescence resonance energy transfer signal of both plates is measured on an Envision (PerkinElmer) plate reader: dichroic mirror=LANCE/DELFIA DUAL/Bias; Emission1=615 nm; Emission2=665 nm; delay time=60 s. The signal of each well is determined as the ratio of the emission at 665 nm to that at 615 nm. Percent effect of each well is determined after normalization to control wells containing DMSO (no effect) or a saturating concentration of inhibitor (max effect). The apparent effect as a function of compound concentration is fit to a four-parameter logistic equation.

[2] = target: T2, biotinylated KRAS protein containing G12C/C51S/C80L/C118S mutations (SEQ ID NO: 3) (Homo sapiens, UniProt P01116, C118S/C51S/C80L/G12C); assay: Test Example 4: SOS-catalyzed nucleotide exchange assay (TR-FRET); assay type: biochemical; details: 60-minute incubation with compound, then SOS and GTP, read-out: GNE IC50
T2 construct: biotin acceptor peptide (Avi-type, […]
Procedure: Test Example 4: Procedure for SOS-Catalyzed Nucleotide Exchange Assay
The SOS-catalyzed nucleotide exchange assay utilizes a preformed complex of recombinant biotinylated KRAS protein containing G12C/C51S/C80L/C118S mutations (SEQ ID NO: 3) (referred to as Biotinylated KRAS G12C protein hereafter), Bodipy-GDP, and Terbium-streptavidin. Compounds are added to this complex and then after a 60-minute incubation time the mixture is treated with SOS and unlabeled GTP. Small molecule inhibitors stabilize the Bodipy-GDP complex whereas the untreated protein rapidly exchanges Bodipy-GDP for unlabeled GTP resulting in reduced TR-FRET signal.
Biotinylated KRAS G12C protein is diluted to 2 μM in an EDTA buffer (20 mM HEPES, 50 mM sodium chloride, 10 mM EDTA, and 0.01% Tween) and incubated at room temperature for one hour. This mixture is then further diluted to 90 nM in an assay buffer (20 mM HEPES, 150 mM sodium chloride, 10 mM magnesium chloride, and 0.005% Tween) containing 15 nM of Terbium-Streptavidin (Invitrogen, catalog #PV3577) and 900 nM of Bodipy-GDP (Invitrogen, G22360) and incubated at room temperature for six hours. This solution is referred to as Biotinylated KRAS G12C stock solution and is then diluted to 9 nM in assay buffer to give the KRAS G12C assay solution.
as §1, with “10” for “50”, “into a” for “into”, “plate” for “plates”, “550” for “655”
Each well receives 6 μL of Biotinylated KRAS G12C assay solution using a BioRAPTR (Beckman Coulter) and is incubated at room temperature for 60 minutes in a humidified chamber. Each well then receives 3 μL of 120 nM recombinant human SOS protein and 9 mM GTP (Sigma, G8877) in assay buffer and is incubated at room temperature for 60 minutes in a humidified chamber.
as §2, with “reader: Excitation filter=340 nm; emission 1=495 nm; emission 2=520 nm;” for “reader:”, “mirror=D400/D505;” for “mirror=LANCE/DELFIA DUAL/Bias; Emission1=615 nm; Emission2=665 nm;”, “time=100 μs.” for “time=60 s.”, “520” for “665”, “495” for “615”

MIA PaCa-2 cells = assay: Test Example 3: growth inhibition activity on KRAS-G12C mutant cell line (MIA PaCa-2); assay type: cell-based; details: Homo sapiens, 72 h, MIA PaCa-2, 3-day culture, CellTiter-Glo 3D, read-out: CTX MiaPaCa IC50
Procedure: Test Example 3: Assay of Growth Inhibition Activity on KRAS-G12C Mutant Cell Line (MIA PaCa-2) (In Vitro)
MIA PaCa-2 cells (provided by Sumitomo Dainippon Pharma Co., Ltd.), which are a KRAS-G12C mutant human pancreas cancer cell line, were suspended in a 10% fetal bovine serum-containing RPMI1640 medium (manufactured by Fujifilm Wako Pure Chemical Corporation.). The cell suspension was seeded into each well of a 384-well U bottom microplate and cultured in an incubator containing 5% CO2 gas at 37° C. for 1 day. The compounds obtained in the Examples section were used as test compounds and were dissolved in DMSO, respectively, and each test compound was diluted with DMSO to give a concentration 500 times the final concentration. The resultant solution of the test compound in DMSO was diluted with the medium used for suspending cells and added to each well of the cell-culture plate to give a DMSO final concentration of 0.2%, followed by culture in an incubator containing 5% CO2 gas at 37° C. for another 3 days. The cell count after 3-day culture in the presence of the test compound was measured using CellTiter-Glo 3D Reagent (manufactured by Promega Corporation). To all cells were added with CellTiter-Glo 3D Reagent and mixed for 10 minutes. 30 minutes after mixing, luminescence was measured by a plate reader. The growth inhibition rate was calculated from the following equation, and the concentration of the test compound at which 50% inhibition was achieved (IC50 (nM)) was determined.
[formula] • T: the emission intensity in a well into which a test compound was added. • C: the emission intensity in a well into which a test compound was not added.

[3] = target: T3, Recombinant KRAS G12C mutant protein (amino acids 1-169, SEQ ID NO: 1) (Homo sapiens, UniProt P01116, G12C); assay: Test Example 1: inhibitory activity on KRAS G12C nucleotide (GDP-GTP) exchange reaction in vitro; assay type: biochemical; details: BODIPY FL GDP-bound KRAS G12C incubated with compound at 25° C. for 1 hour, then SOS1 and GMPPNP, read-out: GNE IC50
T3 construct: His6 (N); TEV protease site (ENLYFQG; named from own knowledge) (N); made in house; host or cells: E. coli
Procedure: Test Example 1: Evaluation of inhibitory activity of compounds on KRAS G12C nucleotide (GDP-GTP) exchange reaction in vitro
Recombinant KRAS G12C mutant protein (amino acids 1-169, SEQ ID NO: 1) and cleaved recombinant SOS1 (amino acids 564-1049, SEQ ID NO:2) proteins were expressed in E. coli and purified by affinity chromatography.
To prepare BODIPY FL GDP-bound KRAS G12C protein, 50 μM KRAS G12C protein was incubated with 0.5 mM BODIPY FL GDP in a loading buffer (20 mM Tris-HCl (pH 7.5), 50 mM NaCl, 1 mM DTT and 2.5 mM EDTA) for 1 hour on ice. After the incubation, MgCl2 was added to a final concentration of 10 mM, followed by incubation at room temperature for 30 minutes. The mixture was allowed to pass through a NAP-5 column to remove free nucleotides and purified BODIPY FL GDP-bound KRAS G12C protein was used for compound evaluation.
For the measurement of the inhibitory activity of compounds on GDP-GTP exchange rate of recombinant KRAS G12C, BODIPY FL GDP-bound KRAS G12C protein was incubated with various concentrations of compound in a reaction buffer (20 mM Tris-HCl (pH 7.5), 100 mM NaCl, 1 mM MgCl2, 2 mM DTT, 0.1% Tween 20) at 25° C. for 1 hour. After the incubation, recombinant SOS1 and Guanosine-5′-[(β,γ)-imido]triphosphate, Tetralithium salt (GMPPNP) (Jena Bioscience GmbH) were added and incubated at room temperature for 30 minutes to proceed SOS1-dependent GDP-GTP exchange reaction on KRAS G12C. Replacement of BODIPY FL GDP by GMPPNP was measured by calculating the ratio of fluorescence intensities of BODIPY FL before and after the exchange reaction. Inhibition % was calculated by setting the fluorescence ratio from the reaction without test compound (DMSO control) and the fluorescence ratio from the reaction without SOS1 and GMPPNP as 0% and 100% inhibition, respectively. IC50 values were calculated from dose titration curve using curve fitting by XLfit software (IDBS).

[4] = target: T4, interaction between KRAS G12C and cRAF-RBD (Homo sapiens, UniProt P01116, G12C); assay: Test Example 2: inhibitory activity on interaction between KRAS G12C and cRAF (Alpha technology); assay type: binding; details: GMPPNP-bound KRAS G12C incubated with compound at 25° C. for 1 hour, then cRAF-RBD
T4 construct: TEV protease site (ENLYFQG); made in house; host or cells: E. coli
Procedure: Test Example 2: Evaluation of Inhibitory Activity of Compounds on Interaction Between KRAS G12C and cRAF (In Vitro)
Interaction between recombinant KRAS G12C mutant protein (SEQ ID NO: 1) and cRAF RAS-binding domain (cRAF-RBD, amino acids 50-132, Jena Biosciences GmbH) was measured using Alpha technology (PerkinElmer Inc.).
Recombinant KRAS G12C protein with an N-terminal His-tag was expressed in E. coli and purified by affinity chromatography. To prepare GTP-bound form and GDP-bound form of KRAS G12C protein, 50 μM KRAS G12C protein was incubated with 1 mM GMPPNP (Jena Bioscience GmbH) and 1 mM GDP, respectively, in a loading buffer (20 mM Tris-HCl (pH 7.5), 50 mM NaCl, 1 mM DTT and 2.5 mM EDTA) for 1 hour on ice. After the incubation, MgCl2 was added to a final concentration of 10 mM, followed by incubation at room temperature for 30 minutes. The mixture was allowed to pass through a NAP-5 column to remove free nucleotides and purified, and the resultant nucleotide-bound KRAS G12C protein was used for compound evaluation.
For the measurement of the inhibitory activity of compounds on interaction between KRAS G12C and cRAF-RBD, GMPPNP-bound KRAS G12C protein was incubated with various concentrations of compound in a reaction buffer (20 mM Tris-HCl (pH 7.5), 100 mM NaCl, 1 mM MgCl2, 1 mM TCEP, 0.1% Tween 20) at 25° C. for 1 hour. After the incubation, recombinant cRAF-RBD and Alpha detection reagents were added and incubated at room temperature for 1.5 hours for binding. Interaction of KRAS G12C and cRAF-RBD was monitored by measuring Alpha signal. Inhibition % was calculated using the signal from the reaction without test compound (DMSO control) as 0% inhibition and the signal from the reaction using GDP-bound KRAS G12C in place of GMPPNP-bound KRAS G12C as 100% inhibition. IC50 values were calculated from dose titration curve using curve fitting by XLfit software (IDBS).

T2 sequence (P01116 with tags, fused parts or gaps isoform P01116-2 G12C/C51S/C80L/C118S): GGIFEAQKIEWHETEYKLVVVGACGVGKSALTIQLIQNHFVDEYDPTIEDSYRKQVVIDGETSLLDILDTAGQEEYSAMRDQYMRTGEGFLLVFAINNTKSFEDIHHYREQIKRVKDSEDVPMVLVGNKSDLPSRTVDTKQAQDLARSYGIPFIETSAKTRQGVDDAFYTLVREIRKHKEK
T4 sequence (P01116 with tags, fused parts or gaps isoform P01116-2 G12C): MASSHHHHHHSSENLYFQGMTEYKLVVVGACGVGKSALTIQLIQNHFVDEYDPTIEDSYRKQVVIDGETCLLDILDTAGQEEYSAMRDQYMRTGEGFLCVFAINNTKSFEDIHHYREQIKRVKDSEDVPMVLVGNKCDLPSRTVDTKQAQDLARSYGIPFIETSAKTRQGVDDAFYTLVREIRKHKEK
T3 sequence (P01116 with tags, fused parts or gaps isoform P01116-2 G12C): as above
T1 sequence (P01116 with tags, fused parts or gaps isoform P01116-2 G12C/C51S/C80L/C118S): as the sequence (P01116 with tags, fused parts or gaps isoform P01116-2 G12C/C51S/C80L/C118S) above

SMILES | IC50 [1] [µM] | IC50 [2] [µM] | IC50 (MIA PaCa-2 cells) [µM] | IC50 [3] [µM] | IC50 [4] [µM]
COC1CCN(C/C=C/C(=O)N2CCN(c3nc(OC[C@@]45CCCN4C[C@H](F)C5)nc4c3COC(c3c(F)cc(F)c5ccc(N)nc35)C4)C[C@@H]2CC#N)CC1 (single isomer, unassigned) [Example 23a] | > 50 | 0.131 |  |  | 
C#Cc1cccc2cc(O)cc([C@@H]3Cc4nc(OCC5(CN6CCOCC6)CC5)nc(N5CCN(C(=O)/C=C/CN6CCC(OC)CC6)[C@@H](CC#N)C5)c4CO3)c12 [Example 1, 2-((S)-4-((S)-7-(8-ethynyl-3-hydroxynaphthalen-1-yl)-2-((1-(morpholinomethyl)cyclopropyl)methoxy)-7,8-dihydro-5H-pyrano[4,3-d]pyrimidin-4-yl)-1-((E)-4-(4-methoxypiperidin-1-yl)but-2-enoyl)piperazin-2-yl)acetonitrile] |  |  | 0.00715 | 0.00102 | 0.0254
COC1CCN(C/C=C/C(=O)N2CCN(c3nc(OC[C@@H]4CCCN4C)nc4c3CO[C@H](c3cc(O)cc5cccc(Br)c35)C4)C[C@@H]2CC#N)CC1 [Example 10, 2-((S)-4-((S)-7-(8-bromo-3-hydroxynaphthalen-1-yl)-2-(((S)-1-methylpyrrolidin-2-yl)methoxy)-7,8-dihydro-5H-pyrano[4,3-d]pyrimidin-4-yl)-1-((E)-4-(4-methoxy-piperidin-1-yl)but-2-enoyl)-piperazin-2-yl)acetonitrile] |  |  | 0.0101 | 0.00073 | 0.107
C#Cc1cccc2cccc(C3Cc4nc(OCC56CCCN5CC(F)C6)nc(N5CCN(C(=O)C=CCN6CCC(OC)CC6)C(CC#N)C5)c4CO3)c12 (single isomer, unassigned) [Example 25a] |  | 0.142 |  |  | 
